≈ marks a conversion by molar mass, not a printed value.
Tested on: A. baumannii strain ATCC19606
Assay: Minimum inhibitory concentration (MIC) determination, microbroth dilution (CLSI)
Format: cell-based
Settings: Acinetobacter baumannii; A. baumannii ATCC19606; CAMHB; read after 20 hours; >=80% growth inhibition; read-out: ATCC19606 MIC
Procedure, shortened: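 CLSI broth microdilution in cation-adjusted Mueller Hinton broth with twofold compound dilutions and ~5×10^5 CFU/ml inoculum, incubated at 35±2 °C. MIC read after 20 h as lowest concentration inhibiting ≥80% of growth, by eye and OD 600 nm.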

## Cc1[nH]c2ccccc2c1C[C@H]1C(=O)NCc2cc(-c3ccnc(F)c3)cc(Cl)c2Sc2ncccc2CN[C@@H](CCCN)C(=O)N[C@@H](CCCCN)C(=O)N1C [Example 183, (11S,14S,17S)-14-(4-Amino-butyl)-11-(3-amino-propyl)-25-chloro-23-(2-fluoro-pyridin-4-yl)-16-methyl-17-(2-methyl-1H-indol-3-ylmethyl)-2-thia-4,10,13,16,19-pentaaza-tricyclo[19.4.0.0*3,8*]pentacosa-1(25),3(8),4,6,21,23-hexaene-12,15,18-trione]
  MIC: 0.25 µg/mL (≈ 0.307 µM)

## CN1C(=O)[C@H](CCCCN)NC(=O)[C@H](CCCN)NCc2ccccc2Sc2ccc(Cl)cc2CNC(=O)[C@@H]1Cc1c[nH]c2ccccc12 [Example 4, (12S,15S,18S)-15-(4-Amino-butyl)-18-(3-amino-propyl)-6-chloro-12-(1H-indol-3-ylmethyl)-13-methyl-2-thia-10,13,16,19-tetraaza-tricyclo[19.4.0.0*3,8*]pentacosa-1(21),3,5,7,22,24-hexaene-11,14,17-trione]
  MIC: 1 µg/mL (≈ 1.42 µM)

## CN1C(=O)[C@H](CCCCN)NC(=O)[C@H](CCCN)NCc2cccnc2Sc2c(cccc2C(F)(F)F)CNC(=O)[C@@H]1Cc1c[nH]c2ccccc12 [Example 36, (11S,14S,17S)-14-(4-Amino-butyl)-11-(3-amino-propyl)-17-(1H-indol-3-ylmethyl)-16-methyl-25-trifluoromethyl-2-thia-4,10,13,16,19-pentaaza-tricyclo[19.4.0.0*3,8*]pentacosa-1(25),3,5,7,21,23-hexaene-12,15,18-trione]
  MIC: 1 µg/mL (≈ 1.35 µM)

## Cc1cc(-c2ccc(Cl)c3c2CNC(=O)[C@H](Cc2c[nH]c4ccccc24)N(C)C(=O)[C@H](CCCCN)NC(=O)[C@H](CCCN)NCc2cccnc2S3)ccn1 [Example 212, (11S,14S,17S)-14-(4-Amino-butyl)-11-(3-amino-propyl)-25-chloro-17-(1H-indol-3-ylmethyl)-16-methyl-22-(2-methyl-pyridin-4-yl)-2-thia-4,10,13,16,19-pentaaza-tricyclo[19.4.0.0*3,8*]pentacosa-1(25),3(8),4,6,21,23-hexaene-12,15,18-trione]
  MIC: 32 µg/mL (≈ 40.2 µM)

## CN1C(=O)[C@H](CCCCN)NC(=O)[C@H](CCCN)NCc2ncccc2Sc2c(Cl)ccc(Cl)c2CNC(=O)[C@@H]1Cc1c[nH]c2ccccc12 [Example 104, (11S,14S,17S)-14-(4-Amino-butyl)-11-(3-amino-propyl)-22,25-dichloro-17-(1H-indol-3-ylmethyl)-16-methyl-2-thia-7,10,13,16,19-pentaaza-tricyclo[19.4.0.0*3,8*]pentacosa-1(21),3,5,7,22,24-hexaene-12,15,18-trione]
  MIC: 2 µg/mL (≈ 2.7 µM)

## CN1C(=O)[C@H](CCCCN)NC(=O)[C@H](CCCN)NCc2cccnc2Sc2c(F)ccc(F)c2CNC(=O)[C@@H]1Cc1c[nH]c2ccccc12 [Example 40, (11S,14S,17S)-14-(4-Amino-butyl)-1-(3-amino-propyl)-22,25-difluoro-17-(1H-indol-3-ylmethyl)-16-methyl-2-thia-4,10,13,16,19-pentaaza-tricyclo[19.4.0.0*3,8*]pentacosa-1(25),3(8),4,6,21,23-hexaene-12,15,18-trione]
  MIC: 0.5 µg/mL (≈ 0.707 µM)

## CN1C(=O)[C@H](CCCCN)NC(=O)[C@H](CCCN)NCc2cccnc2Sc2c(cc(Br)cc2C(F)(F)F)CNC(=O)[C@@H]1Cc1c[nH]c2ccccc12 [Example 88, (11S,14S,17S)-14-(4-Amino-butyl)-11-(3-amino-propyl)-23-bromo-17-(1H-indol-3-ylmethyl)-16-methyl-25-trifluoromethyl-2-thia-4,10,13,16,19-pentaaza-tricyclo[19.4.0.0*3,8*]pentacosa-1(25),3,5,7,21,23-hexaene-12,15,18-trione]
  MIC: 0.25 µg/mL (≈ 0.306 µM)

## CN1C(=O)[C@H](CCCCN)NC(=O)[C@H](CCCN)NCc2ccccc2Sc2ccccc2CNC(=O)[C@@H]1Cc1c[nH]c2ccccc12 [Example 1, (12S,15S,18S)-15-(4-Amino-butyl)-18-(3-amino-propyl)-12-(1H-indol-3-ylmethyl)-13-methyl-2-thia-10,13,16,19-tetraaza-tricyclo[19.4.0.0*3,8*]pentacosa-1(21),3,5,7,22,24-hexaene-11,14,17-trione]
  MIC: 4 µg/mL (≈ 5.97 µM)

## CN1C(=O)[C@H](CCCCN)NC(=O)[C@H](CCCN)NCc2cccnc2Sc2ccc(Cl)c(F)c2CNC(=O)[C@@H]1Cc1c[nH]c2ccccc12 [Example 52, (11S,14S,17S)-14-(4-Amino-butyl)-11-(3-amino-propyl)-23-chloro-22-fluoro-17-(1H-indol-3-ylmethyl)-16-methyl-2-thia-4,10,13,16,19-pentaaza-tricyclo[19.4.0.0*3,8*]pentacosa-1(25),3(8),4,6,21,23-hexaene-12,15,18-trione]
  MIC: 0.5 µg/mL (≈ 0.691 µM)

## CN1C(=O)[C@H](CCCCN)NC(=O)[C@H](CCCN)NCc2cccnc2Sc2c(Cl)cc(N3CCCC3)cc2CNC(=O)[C@@H]1Cc1c[nH]c2ccccc12 [Example 130, (11S,14S,17S)-14-(4-Amino-butyl)-11-(3-amino-propyl)-25-chloro-17-(1H-indol-3-ylmethyl)-16-methyl-23-pyrrolidin-1-yl-2-thia-4,10,13,16,19-pentaaza-tricyclo[19.4.0.0*3,8*]pentacosa-1(25),3(8),4,6,21,23-hexaene-12,15,18-trione]
  MIC: 1 µg/mL (≈ 1.29 µM)

## CN1C(=O)[C@H](CCCCN)NC(=O)[C@H](CCC(N)=O)NCc2cccnc2Sc2c(Cl)ccc(-c3ccnc(F)c3)c2CNC(=O)[C@@H]1Cc1c[nH]c2ccccc12 [Example 231, 3-[(11S,14S,17S)-14-(4-Amino-butyl)-25-chloro-22-(2-fluoro-pyridin-4-yl)-17-(1H-indol-3-ylmethyl)-16-methyl-12,15,18-trioxo-2-thia-4,10,13,16,19-pentaaza-tricyclo[19.4.0.0*3,8*]pentacosa-1(21),3,5,7,22,24-hexaen-11-yl]-propionamide]
  MIC: 1 µg/mL (≈ 1.23 µM)

## CN1C(=O)[C@H](CCCCN)NC(=O)[C@H](CCCN)NCc2ccccc2Sc2c(cc(-c3ccccc3)cc2C(F)(F)F)CNC(=O)[C@@H]1Cc1c[nH]c2ccccc12 [Example 128, (12S,15,18S)-15-(4-Amino-butyl))-18-(3-amino-propyl)-12-(1H-indo-3-ylmethyl)-13-methyl-6-phenyl-4-trifluoromethyl-2-thia-10,13,16,19-tetraaza-tricyclo[19.4.0.0*3,8*]pentacosa-1(25),3,5,7,21,23-hexaene-11,14,17-trione]
  MIC: 2 µg/mL (≈ 2.46 µM)

## CN1C(=O)[C@H](CCCCN)NC(=O)[C@H](CCCN)NCc2ccccc2Sc2ccc(C(F)(F)F)cc2CNC(=O)[C@@H]1Cc1c[nH]c2ccccc12 [Example 14, (12S,15S,18S)-15-(4-Amino-butyl)-18-(3-amino-propyl)-12-(1H-indol-3-ylmethyl)-13-methyl-6-trifluoromethyl-2-thia-10,13,16,19-tetraaza-tricyclo[19.4.0.0*3,8*]pentacosa-1(21),3,5,7,22,24-hexaene-11,14,17-trione]
  MIC: 1 µg/mL (≈ 1.36 µM)

## CN1C(=O)[C@H](CCCCN)NC(=O)[C@H](CCCN)NCc2cccnc2Sc2c(Cl)cc(Cl)cc2CNC(=O)[C@@H]1Cc1c[nH]c2ccccc12 [Example 67, (11S,14S,17S)-14-(4-Amino-butyl)-11-(3-amino-propyl)-23,25-dichloro-17-(1H-indol-3-ylmethyl)-16-methyl-2-thia-4,10,13,16,19-pentaaza-tricyclo[19.4.0.0*3,8*]pentacosa-1(25),3,5,7,21,23-hexaene-12,15,18-trione]
  MIC: 0.12 µg/mL (≈ 0.162 µM)

Source: patent US10030047B2 (Hoffmann-La Roche Inc., priority 2015, dated 2018)
